In patent US20240342080A1, “COMPOSITIONS AND METHODS FOR INHIBITING HUMAN BLOOD PROTEIN VITRONECTIN” (Sanford Burnham Prebys Medical Discovery Institute, priority 2021, published 2024):

How the values were obtained:
[1] = tested on: HAP deposited on spherules; test: In vitro drusen model: production of HAP-protein-lipid proto-spherules (fluorescence emission reflects HAP deposited); assay type: biochemical
Excerpt: (§1) An in vitro assay was designed to produce proto-spherule like those found in AMD drusen. HAP was detected with a specific fluorescent dye. This assay was used to discover inhibitors.
(§2) In Vitro Drusen Model: Production of HAP-Protein-Lipid Proto-Spherules
(§3) In this model, fluorescence emission reflected the amount of HAP deposited on spherules. The results are show in FIG. 1. […] Pyrophosphate (PPi) is a mineralization inhibitor and serves as negative control. There are many HAP-binding proteins but Vn is unique: it plays an active role in HAP mineralization.

[2] = target: T1, human blood protein vitronectin (Vn) (Homo sapiens, UniProt P04004); test: In vitro drusen model used to test Vn antibodies as inhibitors of Vn-dependent HAP deposition; assay type: biochemical; conditions: FIG. 2
T1 construct: made in house; host or cells: Escherichia coli
T1 sequence (P04004 20-478): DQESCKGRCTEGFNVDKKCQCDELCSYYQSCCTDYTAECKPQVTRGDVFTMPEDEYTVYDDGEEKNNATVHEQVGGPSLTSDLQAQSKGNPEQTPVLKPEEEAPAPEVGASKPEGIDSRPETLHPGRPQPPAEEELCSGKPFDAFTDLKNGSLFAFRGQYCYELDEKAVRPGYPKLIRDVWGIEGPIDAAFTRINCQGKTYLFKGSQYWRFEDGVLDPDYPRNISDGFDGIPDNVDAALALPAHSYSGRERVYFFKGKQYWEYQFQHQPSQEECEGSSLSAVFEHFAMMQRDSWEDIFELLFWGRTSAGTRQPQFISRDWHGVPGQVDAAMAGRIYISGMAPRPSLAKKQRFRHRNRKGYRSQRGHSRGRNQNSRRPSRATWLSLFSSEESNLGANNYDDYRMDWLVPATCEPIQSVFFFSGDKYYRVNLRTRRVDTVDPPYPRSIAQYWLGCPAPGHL
Procedure: as §1
Vn was prepared from Escherichia coli. All buffer solutions were prepared with Milli-Q deionized water. For calcium-free preparations, the protein was folded by dropwise dilution from buffer T1 (20 mM Tris HCl pH 8, 6 M guanidine, 10 mM dithiothreitol) into buffer T2 (20 mM Tris HCl pH 8, 500 mM ArgCl, 300 mM NaCl, 5 mM β-mercaptoethanol, 1 mM hydroxyethyldisulfide), followed by dialysis into buffer MI (20 mM MES, pH 6.5, 300 mM NaCl) and size exclusion chromatography (Superdex 200 10/300 GL, GE Healthcare). Calcium-containing samples were prepared by supplementing buffer MI with CaCl2).
as §2, §3
This assay was used to test Vn antibodies (need details on Abc, Abm and Abn and IGF II) as potential inhibitors.

Substance	effect on HAP deposition / mineralization on spherules (fluorescence emission) ([1]; FIG. 1)	effect on HAP deposition / mineralization on spherules (fluorescence emission) ([1]; FIG. 1, listed as Vn)	effect on HAP deposition (fluorescence emission) [2]
Amyloid-β (Aβ): Amyloid-β, comparison protein in the in vitro drusen model [reference compound]	no significant effect on HAP mineralization		
Vitronectin: human blood protein vitronectin, prepared from Escherichia coli	increases HAP deposition on spherules in a dose-dependent and time-dependent manner	promotes HAP formation	promotes HAP deposition in a dose- and time-dependent manner
